Test results published in patent US7491836B2, “Non-ionic surfactants for poorly soluble molecules” (AstraZeneca AB, priority 2003, dated 2009).
Values after ≈ are worked out from the molar mass of the structure shown. Where two headings read alike, the source gives them in different places. Blank lines part the entries; values can stand above or below the molecule they belong to.

Legend:
[1] = system: dog blood erythrocyte suspension; assay: Haemolytic activity, static method (erythrocyte suspension incubated with surfactant, haemoglobin analysed); format: cell-based; conditions: for Hemolysis: 40 min at 37° C.
Description: A static method for evaluating the haemolytic activity of compounds was used. In short, dog blood is processed to an erythrocyte suspension, which is then incubated (40 min at 37° C.) with varying concentrations of a surfactant. The incubation is terminated by centrifugation after which the plasma, now containing different amounts of haemoglobin, can be removed and analysed. The results obtained for various MePEG- and PEG mono-12-acyloxy-stearate esters compared with a reference substance (Tween 80), are summarized in tables 3-4.

CACO-2 cells = assay: Epithelial cell interaction monitored as transepithelial electrical resistance (TEER); format: cell-based
Description: Possible interaction with epithelial cells in the form of CACO-2 cells monitored as transepitheliar electrical resistance (TEER) was studied for some of the compounds. In short, after an equilibration time of 60 min the buffer solution at the donor side was exchanged with a buffer solution containing a certain concentration of the surfactant and TEER was then measured after 8 hours.

physchem = assay: physchem
Description: The solubilization capacity of the compounds of the invention and compounds of prior art for two poorly soluble (i.e. less than sparingly soluble) drug molecules, felodipine and griseofulvin, were tested. […] Sci., 1998, 87(2), 200-8]. The solubilization capacity for each surfactant was determined from the slope of the curve in a graph where the felodipine/griseofulvin concentration was plotted against the surfactant concentration at surfactant concentrations above CMC (critical micellar concentration).

[2] = cited from earlier work

Molecule: CCCCCCC(O)CCCCCCCCCCC(=O)OCCOCCOCCOCCOCCOCCOCCOCCOCCOCCOCCOCCOC (stereo not shown) [MePEG550 12-hydroxystearate]
haemolysis (in words) ([1]; at 1 mM): profound hemolysis | Hemolysis ([1]; surfactant conc 1.0 mM): 25% | Hemolysis ([1]; surfactant conc 5.0 mM): 86% | Hemolysis ([1]; surfactant conc 10 mM): 79% | concentration causing total haemolysis ([1]; text summary of Tables 3-4): 5000 µM

Molecule: CCCCCCCC(=O)OC(CCCCCC)CCCCCCCCCCC(=O)OCCOCCOCCOCCOCCOCCOCCOCCOCCOCCOCCOCCOCCO (stereo not shown) [PEG600 mono-12-octanoyloxy-stearate]
Hemolysis ([1]; surfactant conc 0.6 mM): 88% | Hemolysis ([1]; surfactant conc 0.7 mM): 102%

Molecule: MePEG1200 12-palmitoyloxy-stearate
TEER after 8 hours exposure (CACO-2 cells; surfactant conc 10 mM): 94% | TEER after 8 hours exposure (CACO-2 cells; surfactant conc 50 mM): 103%

Molecule: MePEG2000 12-stearoyloxy-stearate
TEER after 8 hours exposure (CACO-2 cells; surfactant conc 10 mM): 98% | TEER after 8 hours exposure (CACO-2 cells; surfactant conc 50 mM): 96%

Molecule: PEG1500 mono-12-oleoyloxy-stearate
TEER after 8 hours exposure (CACO-2 cells; surfactant conc 0.1 mM): 105% | TEER after 8 hours exposure (CACO-2 cells; surfactant conc 1 mM): 104% | TEER after 8 hours exposure (CACO-2 cells; surfactant conc 10 mM): 95% | TEER after 8 hours exposure (CACO-2 cells; surfactant conc 50 mM): 108%

Molecule: PEG1500 mono-12-palmitoyloxy-stearate
TEER after 8 hours exposure (CACO-2 cells; surfactant conc 0.1 mM): 98% | TEER after 8 hours exposure (CACO-2 cells; surfactant conc 1 mM): 105% | TEER after 8 hours exposure (CACO-2 cells; surfactant conc 10 mM): 103% | TEER after 8 hours exposure (CACO-2 cells; surfactant conc 50 mM): 101%

Further lines, with some results ahead:

TEER after 8 hours exposure (CACO-2 cells; surfactant conc 0.1 mM): 89% | TEER after 8 hours exposure (CACO-2 cells; surfactant conc 1 mM): 43% | TEER after 8 hours exposure (CACO-2 cells; surfactant conc 10 mM): 39% | TEER after 8 hours exposure (CACO-2 cells; surfactant conc 50 mM): 37%
Molecule: CCCCCCC(CCCCCCCCCCC(=O)OCCOCCOCCOCCOCCOCCOCCOCCOCCOCCOCCOCCOCCO)OC(=O)CCCCC (stereo not shown) [PEG600 mono-12-hexanoyloxy-stearate]
Hemolysis ([1]; surfactant conc 0.6 mM): 83% | Hemolysis ([1]; surfactant conc 0.7 mM): 92%

solubility in water (physchem): 2.1 µM (≈ 0.807 µg/mL)
Molecule: CCOC(=O)C1=C(C)NC(C)=C(C(=O)OC)C1c1cccc(Cl)c1Cl (stereo not shown) [felodipine]
solubility in water [2]: 0.8 µg/mL (≈ 2.08 µM)

solubility (physchem; water): ~23 µM (≈ 8.11 µg/mL)
Molecule: COC1=CC(=O)C[C@@H](C)[C@]12Oc1c(Cl)c(OC)cc(OC)c1C2=O [griseofulvin]
solubility in water [2]: approximately 8.1 μg/ml

TEER after 8 hours exposure (CACO-2 cells; surfactant conc 10 mM): 101% | TEER after 8 hours exposure (CACO-2 cells; surfactant conc 50 mM): 71%
Molecule: MePEG1200 12-stearoyloxy-stearate

TEER after 8 hours exposure (CACO-2 cells; surfactant conc 10 mM): 96% | TEER after 8 hours exposure (CACO-2 cells; surfactant conc 50 mM): 99%
Molecule: MePEG2000 12-palmitoyloxy-stearate

change in TEER / interaction with epithelial cells (in words) (CACO-2 cells; after 8 hours): substantial decrease in TEER | TEER after 8 hours exposure (CACO-2 cells; surfactant conc 0.1 mM): 100% | TEER after 8 hours exposure (CACO-2 cells; surfactant conc 1 mM): 96% | TEER after 8 hours exposure (CACO-2 cells; surfactant conc 10 mM): 93% | TEER after 8 hours exposure (CACO-2 cells; surfactant conc 50 mM): 37%
Molecule: PEG1500 mono-12-lauroyloxy-stearate

TEER after 8 hours exposure (CACO-2 cells; surfactant conc 0.1 mM): 104% | TEER after 8 hours exposure (CACO-2 cells; surfactant conc 1 mM): 100% | TEER after 8 hours exposure (CACO-2 cells; surfactant conc 10 mM): 104% | TEER after 8 hours exposure (CACO-2 cells; surfactant conc 50 mM): 98%
Molecule: PEG1500 mono-12-myristoyloxy-stearate

TEER after 8 hours exposure (CACO-2 cells; surfactant conc 0.1 mM): 98% | TEER after 8 hours exposure (CACO-2 cells; surfactant conc 1 mM): 104% | TEER after 8 hours exposure (CACO-2 cells; surfactant conc 10 mM): 103% | TEER after 8 hours exposure (CACO-2 cells; surfactant conc 50 mM): 108%
Molecule: PEG1500 mono-12-stearoyloxy-stearate
